Laboratory results: patent publication US10730874B2 (Shire Human Genetic Therapies, Inc., priority 2018, dated 2020)

The compounds below were run against human activated kallikrein enzyme (plasma kallikrein) (Homo sapiens (Human), UniProt P03952) (assay: Inhibition of human activated plasma kallikrein, fluorogenic peptide substrate assay, 500 pM enzyme format). Conditions: 500 pM activated kallikrein enzyme, 300 uM Pro-Phe-Arg-7-amido-4-methylcoumarin substrate, 30 min preincubation, 10 min at RT; read-out: Primary Dose Response Assay: Average EC50.
Type: biochemical
Method in brief: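 Buffer 20 mM Tris pH 7.5, EDTA, NaCl, PEG-400, Triton X-100; 300 uM Pro-Phe-Arg-AMC; enzyme–inhibitor preincubation 30 min RT. Format one: 500 pM kallikrein, 10 min RT reaction; format two: 5 pM kallikrein, 18 h RT reaction. Fluorescence read at 460 nm (380 nm excitation).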

Chain of human activated kallikrein enzyme (plasma kallikrein) (P03952 391-638): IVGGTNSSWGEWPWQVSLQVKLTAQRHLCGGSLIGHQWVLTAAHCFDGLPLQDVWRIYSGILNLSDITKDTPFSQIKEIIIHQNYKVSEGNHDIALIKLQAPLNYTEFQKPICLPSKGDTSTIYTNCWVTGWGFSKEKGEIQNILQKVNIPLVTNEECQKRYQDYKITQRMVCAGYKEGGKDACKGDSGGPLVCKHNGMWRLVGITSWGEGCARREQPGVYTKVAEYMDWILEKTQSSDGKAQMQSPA
Chain of human activated kallikrein enzyme (plasma kallikrein) (P03952 20-390 partner): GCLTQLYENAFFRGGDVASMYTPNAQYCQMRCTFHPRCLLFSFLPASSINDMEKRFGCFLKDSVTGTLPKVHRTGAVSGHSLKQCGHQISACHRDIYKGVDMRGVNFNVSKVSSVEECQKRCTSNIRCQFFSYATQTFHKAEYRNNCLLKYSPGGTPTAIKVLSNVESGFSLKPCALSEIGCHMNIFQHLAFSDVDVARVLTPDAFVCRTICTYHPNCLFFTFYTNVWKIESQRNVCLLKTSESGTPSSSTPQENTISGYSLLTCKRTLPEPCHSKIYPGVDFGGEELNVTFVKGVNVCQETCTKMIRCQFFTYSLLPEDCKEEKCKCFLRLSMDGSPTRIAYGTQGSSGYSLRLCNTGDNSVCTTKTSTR

| EC50 [nM] | Compound |
| --- | --- |
| < 1 | O=C(NCc1ncn2ccc(Cl)c(F)c12)c1cn(Cc2cn3cc(C4CC4)cc(C(F)F)c3n2)nn1 [Example I-192, N-((7-chloro-8-fluoroimidazo[1,5-a]pyridin-1-yl)methyl)-1-((6-cyclopropyl-8-(difluoromethyl)imidazo[1,2-a]pyridin-2-yl)methyl)-1H-1,2,3-triazole-4-carboxamide] |
| 1 to 10 | Cc1ccc2nc(Cn3cc(C(=O)NCc4ncn5c(N)cc(Cl)cc45)cn3)cn2c1 [Example I-58, N-((5-amino-7-chloroimidazo[1,5-a]pyridin-1-yl)methyl)-1-((6-methylimidazo[1,2-a]pyridin-2-yl)methyl)-1H-pyrazole-4-carboxamide] |
| < 1 | O=C(NCc1ncn2ccc(Cl)c(F)c12)c1cn(Cc2cc3cc(C4CC4)cc(N4CCCC4=O)n3n2)nn1 [Example I-262, N-((7-chloro-8-fluoroimidazo[1,5-a]pyridin-1-yl)methyl)-1-((5-cyclopropyl-7-(2-oxopyrrolidin-1-yl)pyrazolo[1,5-a]pyridin-2-yl)methyl)-1H-1,2,3-triazole-4-carboxamide] |
| < 1 | COC(=O)c1c(Cn2cc(C(=O)NCc3ncn4ccc(Cl)c(F)c34)nn2)[nH]c2cc(C3CC3)ccc12 [Example I-272, methyl 2-((4-(((7-chloro-8-fluoroimidazo[1,5-a]pyridin-1-yl)methyl)carbamoyl)-1H-1,2,3-triazol-1-yl)methyl)-6-cyclopropyl-1H-indole-3-carboxylate] |
| 1 to 10 | Cc1ccn2cnc(CNC(=O)c3cnn(Cc4cn5cc(C6CC6)ccc5n4)c3)c2c1 [Example I-4, 1-((6-cyclopropylimidazo[1,2-a]pyridin-2-yl)methyl)-N-((7-methylimidazo[1,5-a]pyridin-1-yl)methyl)-1H-pyrazole-4-carboxamide] |
| < 1 | O=C(O)CCn1c(Cn2cc(C(=O)NCc3ncn4ccc(Cl)c(F)c34)nn2)cc2cc(C3CC3)ccc21 [Example I-251b, 3-(2-((4-(((7-chloro-8-fluoroimidazo[1,5-a]pyridin-1-yl)methyl)carbamoyl)-1H-1,2,3-triazol-1-yl)methyl)-5-cyclopropyl-1H-indol-1-yl)propanoic acid] |
| 1 to 10 | O=C(NCc1ncn2ccc(Br)cc12)c1cnn(Cc2cn3cc(C4CC4)c(F)cc3n2)c1 [Example I-20, N-((7-bromoimidazo[1,5-a]pyridin-1-yl)methyl)-1-((6-cyclopropyl-7-fluoroimidazo[1,2-a]pyridin-2-yl)methyl)-1H-pyrazole-4-carboxamide] |
| 1 to 10 | Cc1c(C)n(C)c2ccc(Cn3cc(C(=O)NCc4ncn5ccc(Cl)c(F)c45)nn3)cc12 [Example I-269, N-((7-chloro-8-fluoroimidazo[1,5-a]pyridin-1-yl)methyl)-1-((1,2,3-trimethyl-1H-indol-5-yl)methyl)-1H-1,2,3-triazole-4-carboxamide] |
| 10 to 100 | O=C(NCc1ncn2ccc(Cl)cc12)c1cnn(Cc2ccc3ncc(Cl)cc3c2)c1 [Example I-1, N-((7-chloroimidazo[1,5-a]pyridin-1-yl)methyl)-1-((3-chloroquinolin-6-yl)methyl)-1H-pyrazole-4-carboxamide] |

| Compound | EC50 [nM] |
| --- | --- |
| CCOC(=O)C(C)(C)Cc1cc(C2CC2)cn2cc(Cn3cc(C(=O)NCc4ncn5ccc(Cl)cc45)nn3)nc12 [Example I-168, ethyl 3-(2-((4-(((7-chloroimidazo[1,5-a]pyridin-1-yl)methyl)carbamoyl)-1H-1,2,3-triazol-1-yl)methyl)-6-cyclopropylimidazo[1,2-a]pyridin-8-yl)-2,2-dimethylpropanoate] | < 1 |
| O=C(O)Cc1cc(C2CC2)cn2cc(Cn3cc(C(=O)NCc4ncn5ccc(Cl)cc45)cn3)nc12 [Example I-86, 2-(2-((4-(((7-chloroimidazo[1,5-a]pyridin-1-yl)methyl)carbamoyl)-1H-pyrazol-1-yl)methyl)-6-cyclopropylimidazo[1,2-a]pyridin-8-yl)acetic acid] | < 1 |
